Results reported in BindingDB's records for doi:10.1021/cb500143h (Tottori University , Yonago 683-8503, Japan, 2014).

Biological target: T1, Alpha-galactosidase A (Homo sapiens, UniProt P06280)
T1 sequence (P06280 whole entry): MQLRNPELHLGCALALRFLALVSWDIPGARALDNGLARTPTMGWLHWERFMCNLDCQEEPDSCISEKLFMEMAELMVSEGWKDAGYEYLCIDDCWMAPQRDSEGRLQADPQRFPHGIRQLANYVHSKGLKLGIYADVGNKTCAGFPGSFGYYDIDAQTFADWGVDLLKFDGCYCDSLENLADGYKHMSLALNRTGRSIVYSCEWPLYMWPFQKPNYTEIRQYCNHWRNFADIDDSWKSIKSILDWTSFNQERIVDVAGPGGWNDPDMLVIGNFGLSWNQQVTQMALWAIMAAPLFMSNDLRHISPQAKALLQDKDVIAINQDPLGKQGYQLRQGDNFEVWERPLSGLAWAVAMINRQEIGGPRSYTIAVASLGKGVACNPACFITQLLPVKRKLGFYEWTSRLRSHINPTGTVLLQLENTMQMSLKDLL
Assay: α-Gal A Assay

SMILES | IC50 (pH 5) [nM] | IC50 (pH 7) [nM]
OC[C@@H]1[C@H](O)[C@H](O)[C@@H](O)CN1C(=S)NCc1ccccc1 [DGJ-BnT] | 20300 | 4410
OC[C@@H]1[C@H](O)[C@H](O)[C@@H](O)CN1C(=S)Nc1cccc2ccccc12 [DGJ-NphT] | 1600 | 370
OC[C@@H]1[C@H](O)[C@H](O)[C@@H](O)CN1C(=S)Nc1ccc(F)cc1 [DGJ-pF PhT] | 340 | 43
COc1ccc(NC(=S)N2C[C@H](O)[C@@H](O)[C@@H](O)[C@H]2CO)cc1 [DGJ-pMe OPhT] | 74 | 16
CSc1ccc(NC(=S)N2C[C@H](O)[C@@H](O)[C@@H](O)[C@H]2CO)cc1 [DGJ-pMe SPhT] | 8.3 | 1.4
O[C@@H]1[C@@H](O)CN2/C(=N\c3ccc(F)cc3)SCC2[C@@H]1O (some centres not stated) [pF PhIM-DGJ] | 9670 | 2180
